Assay: Chemical stability in aqueous buffer solution
Format: physicochemical
Settings: pH 2, 37° C., time after which 10% of the original compound has decomposed
Experimental: The chemical stability of the compounds of the invention has been followed kinetically at low concentration at 37° C. in aqueous buffer solution at different pH values. The results in Table 3 show the half life (t 1/2) at pH 7, that is the time period after which half the amount of the original compound remains unchanged, and t10 % at pH 2, that is the time period after which 10% of the original compound has decomposed.
In the case of CCCCOC(=O)OCn1c([S+]([O-])Cc2nccc(OC)c2OC)nc2ccc(Cl)cc21 (stereo not shown) [Example 4, 6-chloro-2[[(3,4-dimethoxy-2pyridinyl)methyl]sulfinyl]-1H-benzimidazole-1-ylmethyl butyl carbonate], the “Chemical Stability at pH 2, t 10%” value is reported as 42 h. For COc1ccnc(C[S+]([O-])c2nc3cc(Cl)ccc3n2COC(=O)OCc2ccccc2)c1OC (stereo not shown) [Example 1, 5-chloro-2-[[(3,4-dimethoxy-2-pyridinyl)methyl]sulfinyl]-1H-benzimidazole-1-ylmethyl benzyl carbonate], the “Chemical Stability at pH 2, t 10%” value was 14 h. For COc1ccnc(C[S+]([O-])c2nc3ccc(Cl)cc3n2COC(=O)OCc2ccccc2)c1OC (stereo not shown) [Example 2, 6-chloro-2-[[(3,4-dimethoxy-2-pyridinyl)methyl]sulfinyl]-1H-benzimidazole-1-ylmethyl benzyl carbonate], the “Chemical Stability at pH 2, t 10%” value was 27 h. With CCCCOC(=O)OCn1c([S+]([O-])Cc2nccc(OC)c2OC)nc2cc(Cl)ccc21 (stereo not shown) [Example 3, 5-chloro-2-[[(3,4-dimethoxy-2-pyridinyl)methyl]sulfinyl]-1H-benzimidazole-1-ylmethyl butyl carbonate] the “Chemical Stability at pH 2, t 10%” value was 21 h.
